Literature values as cited in patent US20230263874A1, “TUMOR ANTIGENS FOR LIVER CANCER IMMUNOTHERAPY” (ISTITUTO NAZIONALE TUMORI IRCCS - FONDAZIONE G. PASCALE, priority 2020, published 2023).

System: hepatocellular carcinoma
Details: second-line treatment, advanced liver cancer not responded to sorafenib; cited from earlier work

SMILES: CNC(=O)c1cc(Oc2ccc(NC(=O)Nc3ccc(Cl)c(C(F)(F)F)c3)c(F)c2)ccn1 [Regorafenib]
- improvement in overall survival: 2.8 month
- reduction risk of death: 38%
